This note sets out measurements from patent publication US20090270435A1 (priority 2006, published 2009).

Assay [1] has as its target T1, ACC2 from rat skeletal muscle (Rattus norvegicus, UniProt Q1HEC0).
T1 construct: The livers (for ACC1 preparation) or skeletal muscle tissue (for ACC2 preparation) are removed; from tissue; host or cells: skeletal muscle of male CD rats (fasted, then fed a high sucrose diet)
In words: Direct inhibition of ACC2 activity (14C-bicarbonate incorporation). In kind it is biochemical. The settings on record: ACC2 from rat skeletal muscle. As for the experimental part:
For example direct inhibition of ACC1 and ACC2 activity, for compounds of Formula (1) were determined using preparations of ACC1 from rat liver and ACC2 from rat skeletal muscle.
[1] Preparation of ACC1 and ACC2. ACC1 was obtained from rat liver and ACC2 was obtained from rat skeletal muscle based upon standard procedures such as those described by Thampy and Wakil (J. Biol. Chem. 260: 6318-6323; 1985) using the following method.
Male CD rats weighing 150-200 g are fasted for 2 days and then fed a high sucrose diet (AIN-76A rodent diet; Cat # D10001, Research Diets Inc., New Brunswick, N.J.), for 3 days at which time they are sacrificed by CO2 asphyxiation. The livers (for ACC1 preparation) or skeletal muscle tissue (for ACC2 preparation) are removed, rinsed in ice-cold phosphate-buffered saline (PBS), and homogenized in 5 volumes of homogenization buffer (50 mM potassium phosphate, pH 7.5, 10 mM EDTA, 10 mM 2-mercaptoethanol, 2 mM benzamidine, 0.2 mM phenylmethylsulfonylfluoride (PMSF), 5 mg/L each leupeptin, aprotinin, and antitrypsin) in a Waring® blender for 1 minute at 4° C. All subsequent operations are carried out at 4° C. The homogenate is made 3% with respect to polyethylene glycol (PEG) by the addition of 50% PEG solution and centrifuged at 20,000×g for 15 minutes. The resulting supernatant is adjusted to 5% PEG with the addition of 50% PEG solution and stirred for 5 minutes. The pellet (contains ACC activity) is collected by centrifugation at 20,000×g for 20 minutes, rinsed with Ice-cold doubly distilled water to remove excess PEG and re-suspended in one-fourth the original homogenate volume with homogenization buffer. Ammonium sulfate (200 g/liter) is slowly added with stirring. After 45 minutes the enzyme is collected by centrifugation for 30 minutes at 20,000×g, re-suspended in 10 ml of 50 mM HEPES, pH7.5, 0.1 mM DTT, 1.0 mM EDTA, and 10% glycerol and desalted on a Sephadex™ G-25 column (2.5 cm-x 50 cm) (Pharmacia, Piscataway N.J. now GE Healthcare) […] equilibrated with the same buffer. The desalted enzyme preparation is stored in aliquots at −70° C. Immediately prior to use, frozen ACC1 or ACC2 aliquots are thawed, diluted to 500 μg/ml in buffer containing 50 mM HEPES, pH7.5, 1.0 mM MgCl2, 10 mM tripotassium citrate, 2.0 mM dithiothreitol (DTT), and 0.75 mg/ml fatty acid-free bovine serum albumin (BSA) and pre-incubated at 37° C. for 30 minutes.
[2] Measurement of ACC inhibition. The procedures for measuring ACC1 inhibition and ACC2 inhibition are identical except for the source of the isozyme. For measurement of ACC activity and assessment of ACC inhibition, test compounds are dissolved in dimethylsulfoxide (DMSO) and 1 μL aliquots are placed in 0.5 ml polypropylene tubes. Control tubes contain 1 μL of DMSO alone. Tubes are incubated at 37° C. in a constant temperature water bath. […] The reaction is then initiated by the addition of 10 μL of preincubated ACC fraction prepared as described above. After 7 minutes the reaction is terminated by the addition of 50 μL of 6N HCl and a 150 μL aliquot of the reaction mixture is transferred to glass scintillation vials and evaporated to dryness at 90° C. for at least 1 hour. The dried vials are then cooled, 0.5 ml of water and 5.5 ml of Ready Safe liquid scintillation fluid (Beckman Coulter Inc., Fullerton, Calif.) are added, and the radioactivity is determined using a liquid scintillation counter. Tubes that received HCl before ACC served as blanks.
[3] Specificity for ACC1 vs ACC2 inhibition. The specificity of a compound for Inhibiting ACC1 vs ACC2 can be determined by comparing the concentration of test compound required to inhibit 50% of the activity contained in an aliquot of ACC1 as compared with the concentration of the same compound required to inhibit 50% of the activity of an aliquot of ACC2.

In assay [2] the target is T2, ACC1 from rat liver (Rattus norvegicus, UniProt P11497).
T2 construct: The livers (for ACC1 preparation) or skeletal muscle tissue (for ACC2 preparation) are removed; from tissue; host or cells: liver of male CD rats (fasted, then fed a high sucrose diet)
In words: Direct inhibition of ACC1 activity (14C-bicarbonate incorporation). In kind it is biochemical. The settings on record: ACC1 from rat liver. The procedure, abridged:
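ACC1 partially purified from livers of fasted/sucrose-refed male rats by PEG and ammonium sulfate fractionation, then preincubated 30 min at 37°C with 10 mM citrate and 1.0 mM MgCl2. Reaction ran 7 min at 37°C, stopped with HCl; acid-stable radioactivity counted by scintillation; HCl-first tubes served as blanks.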

Assay [3] deals with hepatic fatty acid synthesis. In words: Measurement of fatty acid synthesis inhibition in experimental animals ([2-14C]acetate into saponifiable lipids in liver). Type of assay: in vivo, Sprague Dawley rats. The following applies: Rattus norvegicus; for inhibition at 30 mg/kg: po, read-out: Percent Inhibition at 30 mg/kg. The text has this:
The ACC inhibitory activity of compounds of this invention, and the salts of such compounds, can be confirmed in vivo by evaluation of their ability to inhibit hepatic fatty acid production and to stimulate whole body fatty acid oxidation using methods based on standard procedures. For example, since ACC catalyzes the first committed step in the biosynthesis of fatty acids, the in vivo activity of these compounds can be confirmed by measuring the ability of the compounds of this invention, and the salts of such compounds, to prevent the formation of radio labeled fatty acids from radio labeled acetate in the livers of treated mammals.
[1] Measurement of fatty acid synthesis inhibition in experimental animals. Incorporation of [2-^14C]acetate into saponifyable lipids in the livers of mammals (e.g. CDI mice, C57BI/6J-ob/ob mice, Sprague Dawley rats (available from Charles River Boston, Mass. or Jackson Labs Bar Harbor, Me.)) can be measured essentially as previously described for assessment of hepatic sterol synthesis (Harwood et al, Biochem. Pharmacol, 40: 1281-1293, 1990; Harwood et al. Biochem. Pharmacol. 53: 839-864, 1997) with the following modifications to allow for assessment fatty acid synthesis. For example, Sprague Dawley rats are administered a 0.1 ml per 40 g body weight of an oral bolus of vehicle (e.g. water or 0.5% methylcellulose in water)±test compound. One to four hours after compound administration, animals receive an intraperitoneal injection of 0.5 ml of [2-^14C]acetate (64 μCi/ml; 57 mCi/mmol). One hour after radiolabel administration, animals are sacrificed by CO2 asphyxiation and two, 0.75 g liver pieces are removed and saponified at […]. for 120 minutes in 1.5 ml of 2.5 M NaOH. After saponification, 2.5 ml of absolute EtOH are added to each sample and the solutions are mixed and allowed to stand overnight. Petroleum ether, 4.8 ml, is then added to each sample and the mixtures are first shaken vigorously for 2 minutes then centrifuged at 1000×g in a bench-top Sorvall®9 for 5 minutes. The resultant petroleum ether layers, which contain the nonsaponifyable lipids (e.g. cholesterol, post-squalene cholesterol precursors and other non-saponifiable lipids), are removed and discarded. The remaining aqueous layer (containing fatty acid sodium salts) is acidified to pH<2 by addition of 0.6 ml of 12 M HCl and extracted two times with 4.8 ml of petroleum ether. The pooled organic fractions (containing protonated fatty acids) are transferred to liquid scintillation vials, dried under nitrogen, dissolved in 7 ml of Aqua sol liquid scintillation fluid, and assessed for radioactivity using a liquid scintillation counter. Inhibition of fatty acid synthesis by the test compound is expressed as the concentration required to reduce by 50% the dpm [2-^14C]acetate incorporated into saponifiable lipids during the 1 hour interval between radio labeled acetate injection and CO2 asphyxiation.
Some compounds of the present were evaluated for inhibition of fatty acid synthesis as described above. As shown below, these compounds were all observed to inhibit the synthesis of fatty acids in vivo.

T1 sequence (Q1HEC0 17-2455): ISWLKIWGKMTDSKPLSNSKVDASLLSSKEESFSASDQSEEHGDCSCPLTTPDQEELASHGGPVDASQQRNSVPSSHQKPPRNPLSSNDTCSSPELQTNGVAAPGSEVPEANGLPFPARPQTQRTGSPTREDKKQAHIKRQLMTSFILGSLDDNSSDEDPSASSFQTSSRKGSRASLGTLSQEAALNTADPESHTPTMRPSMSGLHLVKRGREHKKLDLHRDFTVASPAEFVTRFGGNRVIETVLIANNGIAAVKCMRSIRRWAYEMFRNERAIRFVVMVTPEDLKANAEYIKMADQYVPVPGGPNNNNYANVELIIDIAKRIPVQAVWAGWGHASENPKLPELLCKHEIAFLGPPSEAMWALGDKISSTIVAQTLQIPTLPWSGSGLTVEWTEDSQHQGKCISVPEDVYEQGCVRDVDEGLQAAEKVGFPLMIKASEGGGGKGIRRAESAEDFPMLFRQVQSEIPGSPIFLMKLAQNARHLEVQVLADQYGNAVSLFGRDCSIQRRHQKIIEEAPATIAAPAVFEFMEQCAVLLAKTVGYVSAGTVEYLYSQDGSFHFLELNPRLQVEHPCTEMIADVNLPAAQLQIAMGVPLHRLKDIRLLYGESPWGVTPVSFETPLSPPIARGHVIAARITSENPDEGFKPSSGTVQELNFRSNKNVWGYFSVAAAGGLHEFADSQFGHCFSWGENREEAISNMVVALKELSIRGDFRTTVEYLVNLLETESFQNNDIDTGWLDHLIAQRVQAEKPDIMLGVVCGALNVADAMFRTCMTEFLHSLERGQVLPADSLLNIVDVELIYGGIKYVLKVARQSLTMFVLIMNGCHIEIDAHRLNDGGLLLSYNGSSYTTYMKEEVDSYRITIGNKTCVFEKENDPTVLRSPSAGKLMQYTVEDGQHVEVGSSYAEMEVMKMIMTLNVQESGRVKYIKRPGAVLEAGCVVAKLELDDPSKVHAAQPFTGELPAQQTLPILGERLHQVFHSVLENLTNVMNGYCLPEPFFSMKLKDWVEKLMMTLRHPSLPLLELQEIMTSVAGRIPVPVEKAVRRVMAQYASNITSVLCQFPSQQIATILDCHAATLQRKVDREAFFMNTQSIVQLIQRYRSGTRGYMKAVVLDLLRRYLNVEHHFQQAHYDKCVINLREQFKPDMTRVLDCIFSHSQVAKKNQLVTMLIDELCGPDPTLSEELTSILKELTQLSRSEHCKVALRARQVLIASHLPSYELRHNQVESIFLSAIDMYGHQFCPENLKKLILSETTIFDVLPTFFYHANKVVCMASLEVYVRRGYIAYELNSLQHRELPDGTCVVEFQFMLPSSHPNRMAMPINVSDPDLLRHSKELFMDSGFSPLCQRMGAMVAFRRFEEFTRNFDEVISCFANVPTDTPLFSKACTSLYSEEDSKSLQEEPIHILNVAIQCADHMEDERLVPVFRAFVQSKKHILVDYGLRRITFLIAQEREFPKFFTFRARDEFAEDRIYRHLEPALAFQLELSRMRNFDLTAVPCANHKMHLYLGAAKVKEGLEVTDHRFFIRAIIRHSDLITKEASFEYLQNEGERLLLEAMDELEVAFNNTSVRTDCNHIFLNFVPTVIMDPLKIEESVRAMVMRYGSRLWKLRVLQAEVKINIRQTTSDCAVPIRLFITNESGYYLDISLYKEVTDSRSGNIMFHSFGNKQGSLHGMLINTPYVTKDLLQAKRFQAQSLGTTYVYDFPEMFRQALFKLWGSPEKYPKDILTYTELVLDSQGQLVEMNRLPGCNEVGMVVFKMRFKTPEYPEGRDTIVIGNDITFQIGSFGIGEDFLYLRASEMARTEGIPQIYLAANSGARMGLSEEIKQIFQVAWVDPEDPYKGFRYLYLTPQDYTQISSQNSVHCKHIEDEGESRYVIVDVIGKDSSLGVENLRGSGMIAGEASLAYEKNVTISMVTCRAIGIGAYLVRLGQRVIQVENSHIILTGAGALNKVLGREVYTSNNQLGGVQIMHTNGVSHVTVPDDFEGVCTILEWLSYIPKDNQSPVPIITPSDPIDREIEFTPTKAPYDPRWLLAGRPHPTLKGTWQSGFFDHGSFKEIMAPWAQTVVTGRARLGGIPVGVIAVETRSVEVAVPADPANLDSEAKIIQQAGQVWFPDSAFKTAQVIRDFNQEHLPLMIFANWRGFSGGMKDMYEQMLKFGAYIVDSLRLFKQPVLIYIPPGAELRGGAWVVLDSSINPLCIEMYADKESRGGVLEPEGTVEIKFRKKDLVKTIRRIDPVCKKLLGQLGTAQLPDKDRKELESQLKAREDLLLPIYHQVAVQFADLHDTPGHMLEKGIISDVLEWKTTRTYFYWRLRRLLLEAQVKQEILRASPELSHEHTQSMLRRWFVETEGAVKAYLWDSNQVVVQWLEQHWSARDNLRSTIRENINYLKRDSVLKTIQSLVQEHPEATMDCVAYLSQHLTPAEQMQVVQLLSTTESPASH

`Cc1cc2c(cc1C)C(=O)CC1(CCN(C(=O)c3cc(C)c4[nH]ncc4c3)CC1)O2` [Ex. A1, 6,7-dimethyl-1′-[(7-methyl-1H-indazol-5-yl)carbonyl]spiro-[chromene-2,4′-piperidin]-4(3H)-one]: the IC50 was 36.4 nM in assay [1] and 23.5 nM in assay [2]. The inhibition at 30 mg/kg in assay [3] stood at 35.4%.
`COc1ccc2c(c1F)C(=O)CC1(CCN(C(=O)c3cc(C)c4[nH]ncc4c3)CC1)O2` [Ex. A9, 5-fluoro-6-methoxy-1′-[(7-methyl-1H-indazol-5-yl)carbonyl]spiro[chromene-2,4′-piperidin]-4(3H)-one] showed a concentration for half-maximal inhibition (IC50) in assay [2] of 37.4 nM. Besides, the inhibition at 30 mg/kg in assay [3] was 33.5%.
Consider `COc1ccc2c(c1)C(=O)CC1(CCN(C(=O)c3cc(C)c4[nH]ncc4c3)CC1)O2` [Ex. A16, 6-methoxy-1′-[(7-methyl-1H-indazol-5-yl)carbonyl]spiro[chromene-2,4′-piperidin]-4(3H)-one], for which the IC50 in assay [2] is 55.1 nM. Also, the inhibition at 30 mg/kg in assay [3] was determined as 83%. The inhibition at 10 mg/kg in assay [3] (inhibition of fatty acid synthesis in vivo, 10 mg/kg, oral bolus, read-out: Percent Inhibition at 10 mg/kg) was determined as 68%.
In assay [2], `Cc1cc2c(cc1Cl)C(=O)CC1(CCN(C(=O)c3cc(C)c4[nH]ncc4c3)CC1)O2` [Ex. A13, 6-chloro-7-methyl-1′-[(7-methyl-1H-indazol-5-yl)carbonyl]spiro[chromene-2,4′-piperidin]-4(3H)-one] showed an IC50 of 45 nM. Further, the inhibition at 30 mg/kg in assay [3] came to 64%.
